Laboratory results: PubChem BioAssay AID743423 (Vanderbilt Specialized Chemistry Center, 2014)
The source made the active and inactive calls. No rule for the calls is given here.

Molecular target: Metabotropic glutamate receptor 4 (Homo sapiens) (UniProt Q14833)
Experiment: mGlu4 positive allosteric modulator potency, dose response, selectivity assay for mGlu7/mGlu8 PAM project, CHO Gqi5 cells, Fluo-4 calcium (AID 743423)
Settings: Fluo-4 calcium fluorescence

Metabotropic glutamate receptor 4 (Homo sapiens), sequence (Q14833 whole entry, looked up): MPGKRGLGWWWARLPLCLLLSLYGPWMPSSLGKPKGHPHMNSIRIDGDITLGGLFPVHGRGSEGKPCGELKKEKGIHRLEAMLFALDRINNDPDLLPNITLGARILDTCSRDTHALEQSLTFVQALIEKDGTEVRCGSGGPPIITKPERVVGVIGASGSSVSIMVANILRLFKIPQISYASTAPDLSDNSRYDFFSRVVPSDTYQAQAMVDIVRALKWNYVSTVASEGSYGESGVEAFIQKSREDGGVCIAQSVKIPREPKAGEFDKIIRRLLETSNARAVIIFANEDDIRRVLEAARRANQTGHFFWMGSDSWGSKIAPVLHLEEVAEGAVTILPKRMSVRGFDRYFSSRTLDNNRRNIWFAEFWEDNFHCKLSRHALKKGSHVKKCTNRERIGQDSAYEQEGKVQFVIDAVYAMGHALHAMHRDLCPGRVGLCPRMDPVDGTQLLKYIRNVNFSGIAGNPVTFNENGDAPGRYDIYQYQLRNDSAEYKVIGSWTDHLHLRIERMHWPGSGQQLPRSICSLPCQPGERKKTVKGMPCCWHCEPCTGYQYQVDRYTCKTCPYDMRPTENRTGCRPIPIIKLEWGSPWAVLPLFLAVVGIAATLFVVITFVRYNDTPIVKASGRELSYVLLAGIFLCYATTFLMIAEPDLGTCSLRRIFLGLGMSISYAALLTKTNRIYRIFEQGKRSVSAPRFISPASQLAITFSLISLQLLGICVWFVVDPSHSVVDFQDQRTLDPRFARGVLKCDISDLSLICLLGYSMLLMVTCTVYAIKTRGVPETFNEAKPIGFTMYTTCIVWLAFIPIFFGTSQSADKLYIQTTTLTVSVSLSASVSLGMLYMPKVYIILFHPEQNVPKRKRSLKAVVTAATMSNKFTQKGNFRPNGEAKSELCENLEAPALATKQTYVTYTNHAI

EC50 [µM] | SMILES
10 | COC(=O)c1ccc(-n2c(C)cc(C(=O)COc3ccc(OC(C)=O)cc3)c2C)cc1
3.3 | CC(=O)Nc1ccc(SCC(=O)c2cc(C)n(-c3cccc(F)c3)c2C)cc1
10 | CCOc1ccc(-n2c(C)cc(C(=O)CSc3ccc(OC)cc3)c2C)cc1
10 | CC(=O)Nc1ccc(SCC(=O)c2cc(C)n(-c3nc(C)cs3)c2C)cc1
10 | COc1ccc(SCC(=O)c2cc(C)n(-c3ccc(OC(F)F)cc3)c2C)cc1
10 | CC(=O)Nc1ccc(OCC(=O)c2cc(C)n(-c3ccc(OC(F)F)cc3)c2C)cc1
3.43 | COC(=O)c1ccc(-n2c(C)cc(C(=O)CSc3ccc(NC(C)=O)cc3)c2C)cc1
10 | CC(=O)Nc1ccc(SCC(=O)c2cc(C)n(CC3CCCO3)c2C)cc1 (stereo not drawn)
10 | COC(=O)c1ccc(-n2c(C)cc(C(=O)COc3ccc(NC(C)=O)cc3)c2C)cc1
10 | COC(=O)c1ccc(-n2c(C)cc(C(=O)CSc3ccc(N(C)C(C)=O)cc3)c2C)cc1
2.6 | CC(=O)Nc1ccc(SCC(=O)c2cc(C)n(CCc3cccs3)c2C)cc1
1 | COC(=O)c1ccc(-n2c(C)cc(C(=O)CSCc3ccc(OC)cc3)c2C)cc1
10 | CC(=O)Nc1ccc(SCC(=O)c2cc(C)n(-c3ccc(S(N)(=O)=O)cc3)c2C)cc1
10 | CCOc1ccc(-n2c(C)cc(C(=O)CSCc3ccc(OC)cc3)c2C)cc1
10 | CCn1c(C)cc(C(=O)CSc2ccc(NC(C)=O)cc2)c1C
10 | COC(=O)c1ccc(-n2c(C)cc(C(=O)CSCc3cccc(C)c3)c2C)cc1
2.2 | CC(=O)Nc1ccc(SCC(=O)c2cc(C)n(CC3COc4ccccc4O3)c2C)cc1 (stereo not drawn)

Same assay, conditions: Fluo-4 calcium fluorescence, at 30 µM (top of the series)

% glutamate max response | SMILES
inactive | COC(=O)c1ccc(-n2c(C)cc(C(=O)COc3cccc(N(C)C)c3)c2C)cc1
inactive | COc1ccc(CSCC(=O)c2cc(C)n(-c3ccc(OC(F)F)cc3)c2C)cc1
inactive | COC(=O)c1ccc(-n2c(C)cc(C(=O)CNc3ccc(C(=O)O)cc3)c2C)cc1
22.3 | CC(=O)Nc1ccc(SCC(=O)c2cc(C)n(-c3ccccc3F)c2C)cc1
inactive | Cc1ccc(CSCC(=O)c2cc(C)n(-c3ccc(OC(F)F)cc3)c2C)cc1
inactive | CCOc1ccc(-n2c(C)cc(C(=O)CSCc3cccc(C)c3)c2C)cc1
